Laboratory results reported in patent US11746100B2 (GLOBAL BLOOD THERAPEUTICS, INC., priority 2020, dated 2023).

Target: T1, human ferroportin (Homo sapiens, UniProt Q9NP59)
T1 construct: luciferase reporter (read with the Nano-Glo Luciferase Assay System); expressed in transfected cells; host or cells: CHO cells, stably transfected, expression induced with doxycycline
T1 sequence (Q9NP59 1-571): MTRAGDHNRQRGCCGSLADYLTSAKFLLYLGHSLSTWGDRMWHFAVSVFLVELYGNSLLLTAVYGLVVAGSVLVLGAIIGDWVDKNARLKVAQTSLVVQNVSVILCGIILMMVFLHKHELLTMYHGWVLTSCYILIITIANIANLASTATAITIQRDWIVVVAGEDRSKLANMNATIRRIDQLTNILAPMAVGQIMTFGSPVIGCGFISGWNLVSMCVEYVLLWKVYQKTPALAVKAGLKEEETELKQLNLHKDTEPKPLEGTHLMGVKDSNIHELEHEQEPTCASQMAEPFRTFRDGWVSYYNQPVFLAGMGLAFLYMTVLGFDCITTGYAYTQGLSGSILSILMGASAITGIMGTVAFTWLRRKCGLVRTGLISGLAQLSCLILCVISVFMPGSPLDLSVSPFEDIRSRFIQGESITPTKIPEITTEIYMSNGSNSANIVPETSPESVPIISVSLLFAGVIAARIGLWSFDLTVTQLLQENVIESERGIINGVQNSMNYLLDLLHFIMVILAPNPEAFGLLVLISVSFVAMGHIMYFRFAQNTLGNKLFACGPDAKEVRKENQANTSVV
Assay: Biological in-vitro ferroportin internalization assay (luciferase reporter)
Format: cell-based
Details: average pEC50; stably-transfected CHO cell line expressing human ferroportin tagged to a luciferase reporter; 6 h incubation with test compound
Outline: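 Stably transfected CHO cells expressing luciferase-tagged human ferroportin, plated 24 h with ferric ammonium citrate and induced with doxycycline for 24 h. Compounds incubated 6 h, then luciferase activity measured by Nano-Glo; average pEC50 reported.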

SMILES | pEC50
COc1ccnc(-c2nc3c(c(N(C)CC(=O)Nc4cnn(C)c4)n2)CCC3)c1 [Compound 154, 2-{[2-(4-methoxypyridin-2-yl)-5H,6H,7H-cyclopenta[d]pyrimidin-4-yl](methyl)amino}-N-(1-methyl-1H-pyrazol-4-yl)acetamide] | 7.4
COc1ccnc(-c2nc3c(c(N(C)CC(=O)NC4(C)CCCC4)n2)CCC3)c1 [Compound 155, 2-{[2-(4-methoxypyridin-2-yl)-5H,6H,7H-cyclopenta[d]pyrimidin-4-yl](methyl)amino}-N-(1-methylcyclopentyl)acetamide] | 7.5
COc1ccnc(-c2nc3c(c(N(C)CC(=O)N(C)C(C)(C)C)n2)CCC3)c1 [Compound 156, N-tert-butyl-2-{[2-(4-methoxypyridin-2-yl)-5H,6H,7H-cyclopenta[d]pyrimidin-4-yl](methyl)amino}-N-methylacetamide] | 7.9
COc1ccnc(-c2nc3c(c(N(C)CC(=O)N(C)C)n2)CCC3)c1 [Compound 157, 2-{[2-(4-methoxypyridin-2-yl)-5H,6H,7H-cyclopenta[d]pyrimidin-4-yl](methyl)amino}-N,N-dimethylacetamide] | 7.3
CN(CC(=O)NC1(C)CCCC1)c1nc(-c2cn(C)cn2)nc2c1CCC2 [Compound 161, 2-{methyl[2-(1-methyl-1H-imidazol-4-yl)-5H,6H,7H-cyclopenta[d]pyrimidin-4-yl]amino}-N-(1-methylcyclopentyl)acetamide] | 7.4
CN(CC(=O)Nc1cccc(F)c1)c1nc(-c2cc(OCCO)ccn2)nc2c1CCC2 [Compound 167, N-(3-fluorophenyl)-2-({2-[4-(2-hydroxyethoxy)pyridin-2-yl]-5H,6H,7H-cyclopenta[d]pyrimidin-4-yl}(methyl)amino)acetamide] | 7.9
COc1ccnc(-c2nc3c(c(N(C)CC(=O)N[C@H]4CCCC[C@H]4O)n2)CCC3)c1 [Compound 169, N-[(1S,2R)-2-hydroxycyclohexyl]-2-{[2-(4-methoxypyridin-2-yl)-5H,6H,7H-cyclopenta[d]pyrimidin-4-yl](methyl)amino}acetamide] | 7.3
COc1ccnc(-c2nc3c(c(N(C)CC(=O)N[C@H]4CCC[C@H]4O)n2)CCC3)c1 [Compound 171, N-[(1S,2R)-2-hydroxycyclopentyl]-2-{[2-(4-methoxypyridin-2-yl)-5H,6H,7H-cyclopenta[d]pyrimidin-4-yl](methyl)amino}acetamide] | 7.2
CN(CC(=O)Nc1cnn(C)c1)c1nc(-c2cc(OCC(F)(F)F)ccn2)nc2c1CCC2 [Compound 177, 2-[methyl({2-[4-(2,2,2-trifluoroethoxy)pyridin-2-yl]-5H,6H,7H-cyclopenta[d]pyrimidin-4-yl})amino]-N-(1-methyl-1H-pyrazol-4-yl)acetamide] | 6.9
COc1ccnc(-c2nc3c(c(N(C)CC(=O)Nc4cncnc4)n2)CCC3)c1 [Compound 178] | 7.2
CN(CC(=O)NC1(C)CCCC1)c1nc(-c2cc(OCCO)ccn2)nc2c1CCC2 [Compound 179, 2-({2-[4-(2-hydroxyethoxy)pyridin-2-yl]-5H,6H,7H-cyclopenta[d]pyrimidin-4-yl}(methyl)amino)-N-(1-methylcyclopentyl)acetamide] | 7.7
C[C@H](C(=O)NC(C)(C)C)N(C)c1nc(-c2cc3cn[nH]c3cn2)nc2c1CCC2 [Compound 183, (2R)—N-tert-butyl-2-[methyl(2-{1H-pyrazolo[3,4-c]pyridin-5-yl}-5H,6H,7H-cyclopenta[d]pyrimidin-4-yl)amino]propanamide] | 8
CN(CC(=O)NC1(C)CCCC1)c1nc(-c2cc3cn[nH]c3cn2)nc2c1CCC2 [Compound 184, 2-[methyl(2-{1H-pyrazolo[3,4-c]pyridin-5-yl}-5H,6H,7H-cyclopenta[d]pyrimidin-4-yl)amino]-N-(1-methylcyclopentyl)acetamide] | 7.7
CN(CC(=O)NC1(C)CCOC1)c1nc(-c2cc3cn[nH]c3cn2)nc2c1CCC2 (stereo not shown) [Compound 185, 2-[methyl(2-{1H-pyrazolo[3,4-c]pyridin-5-yl}-5H,6H,7H-cyclopenta[d]pyrimidin-4-yl)amino]-N-(3-methyloxolan-3-yl)acetamide] | 7.2
COc1ncc(NC(=O)CN(C)c2nc(-c3cn(C)cn3)nc3c2CCC3)cn1 [Compound 186, N-(2-methoxypyrimidin-5-yl)-2-{methyl[2-(1-methyl-1H-imidazol-4-yl)-5H,6H,7H-cyclopenta[d]pyrimidin-4-yl]amino}acetamide] | 7
COc1ccc(NC(=O)CN(C)c2nc(-c3cc(OCCO)ccn3)nc3c2CCC3)cn1 [Compound 187, 2-({2-[4-(2-hydroxyethoxy)pyridin-2-yl]-5H,6H,7H-cyclopenta[d]pyrimidin-4-yl}(methyl)amino)-N-(6-methoxypyridin-3-yl)acetamide] | 7.9
COc1ccc(N2CCCN(c3nc(-c4ccccn4)nc4c3CCC4)CC2=O)cc1 [Compound 188, 1-(4-methoxyphenyl)-4-[2-(pyridin-2-yl)-5H,6H,7H-cyclopenta[d]pyrimidin-4-yl]-1,4-diazepan-2-one] | 6.7
COc1ccnc(-c2nc3c(c(N(C)CC(=O)Nc4ccc(F)cc4)n2)CCC3)c1 [Compound 189, N-(4-fluorophenyl)-2-{[2-(4-methoxypyridin-2-yl)-5H,6H,7H-cyclopenta[d]pyrimidin-4-yl](methyl)amino}acetamide] | 7.7
COc1ccc(NC(=O)CN(C)c2nc(-c3cn(C)cn3)nc3c2CCC3)nc1 [Compound 190, N-(5-methoxypyridin-2-yl)-2-{methyl[2-(1-methyl-1H-imidazol-4-yl)-5H,6H,7H-cyclopenta[d]pyrimidin-4-yl]amino}acetamide] | 7.8

Second part, the compound after the results:

pEC50 | SMILES
6.2 | CN(CC(=O)NC(C)(C)C)c1nc(-c2cc(C#N)ccn2)nc2c1CCC2 [Compound 158, N-tert-butyl-2-{[2-(4-cyanopyridin-2-yl)-5H,6H,7H-cyclopenta[d]pyrimidin-4-yl](methyl)amino}acetamide]
8.0 | CN(CC(=O)NC(C)(C)C)c1nc(-c2cc(OCC3CC3)ccn2)nc2c1CCC2 [Compound 159, N-tert-butyl-2-({2-[4-(cyclopropylmethoxy)pyridin-2-yl]-5H,6H,7H-cyclopenta[d]pyrimidin-4-yl}(methyl)amino)acetamide]
5.2 | CN(CC(=O)NC(C)(C)C)c1nc(-c2ccn(C)n2)nc2c1CCC2 [Compound 160, N-tert-butyl-2-{methyl[2-(1-methyl-1H-pyrazol-3-yl)-5H,6H,7H-cyclopenta[d]pyrimidin-4-yl]amino}acetamide]
5.7 | CN(CC(=O)NC(C)(C)C)c1nc(-c2nccn2C)nc2c1CCC2 [Compound 162, N-tert-butyl-2-{methyl[2-(1-methyl-1H-imidazol-2-yl)-5H,6H,7H-cyclopenta[d]pyrimidin-4-yl]amino}acetamide]
5.4 | CN(CC(=O)NC(C)(C)C)c1nc(-c2cocn2)nc2c1CCC2 [Compound 163, N-tert-butyl-2-{methyl[2-(1,3-oxazol-4-yl)-5H,6H,7H-cyclopenta[d]pyrimidin-4-yl]amino}acetamide]
7.4 | CN(CC(=O)NC(C)(C)C)c1nc(-c2cc3ccccc3cn2)nc2c1CCC2 [Compound 165, N-tert-butyl-2-{[2-(isoquinolin-3-yl)-5H,6H,7H-cyclopenta[d]pyrimidin-4-yl](methyl)amino}acetamide]
6.7 | CN(CC(=O)NC(C)(C)C)c1nc(-c2cn3ccccc3n2)nc2c1CCC2 [Compound 166, N-tert-butyl-2-[(2-{imidazo[1,2-a]pyridin-2-yl}-5H,6H,7H-cyclopenta[d]pyrimidin-4-yl)(methyl)amino]acetamide]
8.2 | CN(CC(=O)NC(C)(C)C)c1nc(-c2cc(OCC(C)(C)O)ccn2)nc2c1CCC2 [Compound 174, N-tert-butyl-2-({2-[4-(2-hydroxy-2-methylpropoxy)pyridin-2-yl]-5H,6H,7H-cyclopenta[d]pyrimidin-4-yl}(methyl)amino)acetamide]
7.8 | CN(CC(=O)NC(C)(C)C)c1nc(-c2cc3[nH]ncc3cn2)nc2c1CCC2 [Compound 176, N-tert-butyl-2-[methyl(2-{1H-pyrazolo[4,3-c]pyridin-6-yl}-5H,6H,7H-cyclopenta[d]pyrimidin-4-yl)amino]acetamide]
5.2 | COc1cccnc1-c1nc2c(c(N(C)CC(=O)NC(C)(C)C)n1)CCC2 [Compound 180, N-tert-butyl-2-{[2-(3-methoxypyridin-2-yl)-5H,6H,7H-cyclopenta[d]pyrimidin-4-yl](methyl)amino}acetamide]
6.5 | CN(CC(=O)NC(C)(C)C)c1nc(-c2ncccc2O)nc2c1CCC2 [Compound 181, N-tert-butyl-2-{[2-(3-hydroxypyridin-2-yl)-5H,6H,7H-cyclopenta[d]pyrimidin-4-yl](methyl)amino}acetamide]
7.6 | CN(CC(=O)NC(C)(C)C)c1nc(-c2c[nH]cn2)nc2c1CCC2 [Compound 182, N-tert-butyl-2-{[2-(1H-imidazol-4-yl)-5H,6H,7H-cyclopenta[d]pyrimidin-4-yl](methyl)amino}acetamide]
